# Laboratory results reported in patent US7691901B2, “Carotenoid analogs or derivatives for the inhibition and amelioration of inflammation” (Cardax Pharmaceuticals Inc., priority 2004, dated 2010).
# Test system: lipid peroxidation products
# Test: Thioglycollate/Zymosan-induced peritonitis model: lipid oxidation products in peritoneal lavage by electrospray ionization tandem mass spectrometry
# Type: in vivo, mice
# Procedure: Thioglycollate/Zymosan—Induced Peritonitis Model: Wild-type mice were administered either 500 mg/kg body weight of disodium disuccinate astaxanthin (ddAst/Cardax™) in an oil emulsion vehicle, or normal saline (NS) as a negative control, by oral gavage at 24 hours intervals beginning 7 days prior to the induction of peritonitis. Peritonitis was induced experimentally as follows: mice were injected intraperitoneally with 1 ml of 4% by weight thioglycollate (Tg) broth, to induce the recruitment of proinflammatory cells to the peritoneum. Either 16 hours or 72 hours after recruitment, approximately half of the mice were injected intraperitoneally with 250 mg/kg body weight of zymosan (Z) for a further 4 hours. The mice not receiving zymosan underwent no further treatment. Peritoneal lavage was performed in control animals or animals treated with (ddAst) 16 hours post Tg injection, or 20 h following the combination of both Tg injection (16 hours) followed by Z injection (4 hours), as indicated (Tg/Z). Peritoneal lavages were performed with phosphate-buffered saline containing antioxidant (0.1 mM butylated hydroxytoluene (BHT)) and 2 mM of the metal chelator diethylenetriamine pentaacetic acid (DTPA) according to established practices in the art. The lavage suspensions were transferred to screw-capped tubes under an argon atmosphere, and immediately centrifuged at 1000 rpm in a table top microcentrifuge for 10 min at 4° C. to remove whole cells and debris. All analyses of lipid peroxidation products was performed on cell-free lavage supernatants. Cell pellets were resuspended in phosphate-buffered saline containing 0.1 mM BHT and 0.1 mM DTPA, and differential cell counts (macrophages, monocytes, eosinophils, lymphocytes, neutrophils, and erythrocytes) were performed on cytospun preparations of isolated cells according to established procedures in the art.
# Electrospray ionization tandem mass spectrometry was used to simultaneously quantify individual molecular species of HETEs, HPETEs, the prostaglandin PGF2α, F2-isoprostanoids, hydroxy- and hydroperoxy-octadecadienoic acids (H(P)ODEs), and their precursors, arachidonic acid (AA) and linoleic acid (LA). Additionally, the molar ratios of o-tyrosine (oY/F). were measured.
# [1] = 16 Hour Thioglycollate, 500 mg/kg oral gavage, P-VALUE 0.318 NP
# [2] = 16 Hour Thioglycollate, 500 mg/kg oral gavage, P-VALUE 0.372 NP
# [3] = 16 Hour Thioglycollate, 500 mg/kg oral gavage, P-VALUE 0.564 NP
# [4] = 16 Hour Thioglycollate, 500 mg/kg oral gavage, P-VALUE 0.793 NP
# [5] = 16 Hour Thioglycollate, 500 mg/kg oral gavage, P-VALUE 0.875 NP
# [6] = 16 Hour Thioglycollate, 500 mg/kg oral gavage, P-VALUE 0.958 NP
# [7] = 16 Hour Thioglycollate, 500 mg/kg oral gavage, P-VALUE 0.982
# [8] = 16 Hour Thioglycollate, 500 mg/kg oral gavage, P-VALUE 0.986
# [9] = 72 Hour Thioglycollate/4 Hour Zymosan, 500 mg/kg oral gavage, P-VALUE 0.001 NP
# [10] = 72 Hour Thioglycollate/4 Hour Zymosan, 500 mg/kg oral gavage, P-VALUE 0.002 NP
# [11] = 72 Hour Thioglycollate/4 Hour Zymosan, 500 mg/kg oral gavage, P-VALUE 0.006
# [12] = 72 Hour Thioglycollate/4 Hour Zymosan, 500 mg/kg oral gavage, P-VALUE 0.008
# [13] = 72 Hour Thioglycollate/4 Hour Zymosan, 500 mg/kg oral gavage, P-VALUE 0.010
# [14] = 72 Hour Thioglycollate/4 Hour Zymosan, 500 mg/kg oral gavage, P-VALUE 0.018 NP
# [15] = 72 Hour Thioglycollate/4 Hour Zymosan, 500 mg/kg oral gavage, P-VALUE 0.056 NP
# [16] = 72 Hour Thioglycollate/4 Hour Zymosan, 500 mg/kg oral gavage, P-VALUE 0.118 NP
# [17] = 72 Hour Thioglycollate/4 Hour Zymosan, 500 mg/kg oral gavage, P-VALUE 0.271
# [18] = 72 Hour Thioglycollate/4 Hour Zymosan, 500 mg/kg oral gavage, P-VALUE 0.385 NP
# [19] = 72 Hour Thioglycollate/4 Hour Zymosan, 500 mg/kg oral gavage, P-VALUE 0.629
smiles,measurement,setting,value
"CC1=C(/C=C/C(C)=C/C=C/C(C)=C/C=C/C=C(C)/C=C/C=C(C)/C=C/C2=C(C)C(=O)C(OC(=O)CCC(=O)O)CC2(C)C)C(C)(C)CC(OC(=O)CCC(=O)O)C1=O (stereo not drawn) [Cardax, disodium disuccinate astaxanthin]",5-HETE MEAN,[1],0.334 pmol
same,5-HETE MEDIAN,[1],0.255 pmol
same,11-HETE MEAN,[2],0.434 pmol
same,11-HETE MEDIAN,[2],0.329 pmol
same,9-HODE/LA (ratio) MEAN,[3],0.292
same,9-HODE/LA (ratio) MEDIAN,[3],0.255
same,11-HETE/AA (ratio) MEAN,[4],0.239
same,11-HETE/AA (ratio) MEDIAN,[4],0.195
same,5-HETE/AA (ratio) MEAN,[5],0.218
same,5-HETE/AA (ratio) MEDIAN,[5],0.151
same,9-HETE MEAN,[6],0.826 pmol
same,9-HETE MEDIAN,[6],0.718 pmol
same,13-HODE MEAN,[7],18.838 pmol
same,13-HODE MEDIAN,[7],15.191 pmol
same,PGF2a/AA (ratio) MEAN,[8],0.034
same,PGF2a/AA (ratio) MEDIAN,[8],0.018
same,"5-oxo-ETE (pmol), MEAN","16 Hour Thioglycollate, mean",0.128 pmol
same,"5-oxo-ETE (ratio), MEAN","16 Hour Thioglycollate, mean",0.056 ratio
same,"8-iso-F2a (pmol), MEAN","16 Hour Thioglycollate, mean",0.052 pmol
same,"8-iso-F2a/AA (ratio), MEAN","16 Hour Thioglycollate, mean",0.044 ratio
same,"5-oxo-ETE (pmol), MEDIAN","16 Hour Thioglycollate, median",0.078 pmol
same,"5-oxo-ETE (ratio), MEDIAN","16 Hour Thioglycollate, median",0.067 ratio
same,"8-iso-F2a (pmol), MEDIAN","16 Hour Thioglycollate, median",0.069 pmol
same,"8-iso-F2a/AA (ratio), MEDIAN","16 Hour Thioglycollate, median",0.034 ratio
same,Arachidonic Acid MEAN,[9],3554.3 pmol
same,Arachidonic Acid MEDIAN,[9],2429.5 pmol
same,5-HETE/AA (ratio) MEAN,[10],0.369
same,5-HETE/AA (ratio) MEDIAN,[10],0.333
same,9-HODE/LA (ratio) MEAN,[11],0.132
same,9-HODE/LA (ratio) MEDIAN,[11],0.134
same,11-HETE/AA (ratio) MEAN,[12],0.253
same,11-HETE/AA (ratio) MEDIAN,[12],0.237
same,PGF2a/AA (ratio) MEAN,[13],0.011
same,PGF2a/AA (ratio) MEDIAN,[13],0.012
same,Linoleic Acid MEAN,[14],33183 pmol
same,Linoleic Acid MEDIAN,[14],27585 pmol
same,9-HETE/AA (ratio) MEAN,[15],0.253
same,9-HETE/AA (ratio) MEDIAN,[15],0.244
same,9-HETE MEAN,[16],0.917 pmol
same,9-HETE MEDIAN,[16],0.687 pmol
same,13-HODE/AA (ratio) MEAN,[16],0.229
same,13-HODE/AA (ratio) MEDIAN,[16],0.186
same,13-HODE MEAN,[17],7.181 pmol
same,13-HODE MEDIAN,[17],6.732 pmol
same,5-HETE MEAN,[18],1.236 pmol
same,5-HETE MEDIAN,[18],0.997 pmol
same,Prostaglandin F2α (PGF2α) MEAN,[19],0.040 pmol
same,Prostaglandin F2α (PGF2α) MEDIAN,[19],0.039 pmol
